Some test systems named below: 786-0 renal; A549 NSCLC; ACHN renal; CAKI-1 renal; COLO 205 colon; HCT-116 colon; HCT-15 colon; KM12 colon; MOLT-4 leukemia; SF-268 CNS; SF-539 CNS; SK-MEL-2 melanoma; SK-OV-3 ovarian; SR leukemia; SW-620 colon; UACC-257 melanoma; UO-31 renal; HOP-62 NSCLC; DU-145 prostate; MDA-N.
Common to all, as to experiment: NCI anticancer screen, dose series, 48 h

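Results reflect a 48-hour exposure of cells in 96-well plates to compound at five concentrations. At the TGI there is no net growth.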

Consider `Cc1nc2c(s/c(=N\N)n2-c2ccccc2)c(=O)n1C`, for which the TGI with 786-0 renal, with A549 NSCLC, in the test with ACHN renal, in the test on CAKI-1 renal, in the test with COLO 205 colon and in the test on HCT-116 colon was over 100 µM throughout. For the same compound, the TGI with HCT-15 colon, in the test with KM12 colon, in the test with MOLT-4 leukemia, with SF-268 CNS, in the test with SF-539 CNS and with SK-MEL-2 melanoma was over 100 µM throughout. Besides, the TGI in the test with SK-OV-3 ovarian, in the test on SR leukemia, with SW-620 colon, with UACC-257 melanoma and in the test on UO-31 renal was over 100 µM in each case.
As to `Cc1ccc(C(=O)C(C)N)cc1C` (stereo not drawn), the TGI with 786-0 renal, with A549 NSCLC, with ACHN renal, with CAKI-1 renal, with COLO 205 colon and in the test on HCT-116 colon was over 100 µM in each case. For the same compound, the TGI with HOP-62 NSCLC, with KM12 colon, with MOLT-4 leukemia, with SF-268 CNS, in the test with SF-539 CNS and with SK-MEL-2 melanoma was over 100 µM throughout. The TGI with SK-OV-3 ovarian, with SW-620 colon, in the test with UACC-257 melanoma and in the test on UO-31 renal was over 100 µM throughout.
`NCCSc1nc(N)c2ncn(C3OC(CO)C(O)C3O)c2n1` (stereo not drawn): the TGI in the test with 786-0 renal, in the test on A549 NSCLC, in the test with ACHN renal, with CAKI-1 renal, in the test on COLO 205 colon and in the test on HCT-116 colon was over 100 µM in each case. Also, the TGI with HCT-15 colon, in the test on HOP-62 NSCLC, in the test with KM12 colon, in the test on MOLT-4 leukemia, with SF-268 CNS and in the test on SF-539 CNS was over 100 µM each time. The TGI in the test on SK-MEL-2 melanoma, with SK-OV-3 ovarian, in the test on SR leukemia, in the test on SW-620 colon, in the test with UACC-257 melanoma and in the test on UO-31 renal was over 100 µM in each case.
For the compound `CCN1CCC(O)(/C=C/c2ccc(Cl)cc2)C(C(=O)/C=C/c2ccc(Cl)cc2)C1` (stereo not drawn), the TGI in the test on 786-0 renal was 43.3 µM; with A549 NSCLC, 92.5 µM; in the test with ACHN renal it was over 100 µM; in the test with COLO 205 colon, over 100 µM; in the test with HCT-116 colon, 13.4 µM; in the test with HCT-15 colon it was 46.4 µM. Moreover, the TGI with HOP-62 NSCLC was over 100 µM; in the test with KM12 colon it was 29.5 µM; in the test with MOLT-4 leukemia it was over 100 µM; with SF-268 CNS, over 100 µM; in the test with SK-MEL-2 melanoma it was over 100 µM; with SK-OV-3 ovarian it was 61.7 µM. In addition, the TGI in the test on SR leukemia was over 100 µM; with SW-620 colon, 56.8 µM; in the test with UACC-257 melanoma, 35.5 µM; with UO-31 renal, over 100 µM.
Regarding `CC(C)(C)c1cc2c(O)c(c1)COCc1cc(C(C)(C)C)cc(c1O)COCc1cc(C(C)(C)C)cc(c1O)COC2`, the TGI in the test with 786-0 renal, in the test with A549 NSCLC, in the test on ACHN renal, in the test on COLO 205 colon, with DU-145 prostate and in the test with HCT-116 colon was over 100 µM in each case. Further, the TGI in the test on HCT-15 colon, in the test with HOP-62 NSCLC, with KM12 colon, in the test with MOLT-4 leukemia, in the test on SK-MEL-2 melanoma and in the test on SK-OV-3 ovarian was over 100 µM throughout. Besides, the TGI with SR leukemia, with SW-620 colon, in the test on UACC-257 melanoma and with UO-31 renal was over 100 µM in each case.
`COC(=O)/C=C/N1CC1`: the TGI in the test with 786-0 renal is over 10 µM; with A549 NSCLC it was over 10 µM; in the test on ACHN renal, over 10 µM; with CAKI-1 renal, over 10 µM; with COLO 205 colon, 9.07 µM; with DU-145 prostate, over 10 µM. Besides, the TGI with HCT-116 colon, with HCT-15 colon, in the test on HOP-62 NSCLC, with KM12 colon, with MOLT-4 leukemia and in the test with SF-268 CNS was over 10 µM each time. For the same compound, the TGI with SF-539 CNS, in the test on SK-MEL-2 melanoma, in the test with SK-OV-3 ovarian, in the test on SR leukemia and in the test on UACC-257 melanoma was over 10 µM throughout.
In the case of `Cc1cc2nc3c(C#N)c4c(c(Nc5ccc(Cl)cc5)n3c2cc1C)CCC4`, the TGI in the test with 786-0 renal was 29.3 µM; in the test on ACHN renal it was 43.3 µM; with CAKI-1 renal it was 41.4 µM; with COLO 205 colon, 59.1 µM; with DU-145 prostate, 75.1 µM; in the test on HCT-116 colon it was 30.4 µM. The TGI in the test with HCT-15 colon was 36.7 µM; in the test on HOP-62 NSCLC, over 100 µM; in the test on KM12 colon, over 100 µM; in the test with MOLT-4 leukemia it was over 100 µM; with SF-268 CNS, 33.6 µM; with SF-539 CNS it was 48.7 µM. For the same compound, the TGI was over 100 µM in the test with SK-OV-3 ovarian, 34 µM with SW-620 colon and 76.6 µM in the test with UACC-257 melanoma.
Regarding `CC(=O)Oc1cc2c(n(C)c1=O)CCC2`, the TGI in the test on 786-0 renal, in the test with A549 NSCLC, with ACHN renal, with CAKI-1 renal, with COLO 205 colon and in the test on DU-145 prostate was over 100 µM throughout. Besides, the TGI with HCT-116 colon, in the test on HCT-15 colon, in the test on HOP-62 NSCLC, in the test with KM12 colon, in the test on MOLT-4 leukemia and in the test on SF-268 CNS was over 100 µM each time. Further, the TGI with SF-539 CNS, in the test with SK-MEL-2 melanoma, in the test with SK-OV-3 ovarian, with SW-620 colon, with UACC-257 melanoma and in the test on UO-31 renal was over 100 µM in each case.
Take `O=c1[nH]c(Br)nc2c(N3CCCCC3)c[nH]c12`: the TGI with 786-0 renal, with A549 NSCLC, in the test on ACHN renal, with CAKI-1 renal, in the test with COLO 205 colon and in the test on HCT-116 colon was over 100 µM each time. Also, the TGI in the test on HCT-15 colon, with HOP-62 NSCLC, with KM12 colon, in the test with MOLT-4 leukemia, in the test with SF-268 CNS and in the test on SF-539 CNS was over 100 µM throughout. For the same compound, the TGI in the test on SK-MEL-2 melanoma, in the test on SK-OV-3 ovarian, with SW-620 colon, with UACC-257 melanoma and in the test with UO-31 renal was over 100 µM each time.
As for `O=C(CSCC(=O)N/N=C/c1ccncc1)N/N=C/c1ccncc1`, the TGI in the test with 786-0 renal, with A549 NSCLC, in the test on ACHN renal, with CAKI-1 renal, with DU-145 prostate and in the test with HCT-116 colon was over 100 µM throughout. In addition, the TGI with HCT-15 colon, with HOP-62 NSCLC, in the test on KM12 colon, in the test with MOLT-4 leukemia, in the test on SF-268 CNS and in the test with SF-539 CNS was over 100 µM throughout. Moreover, the TGI in the test on SK-MEL-2 melanoma, in the test on SK-OV-3 ovarian, in the test with SW-620 colon, with UACC-257 melanoma and in the test with UO-31 renal was over 100 µM in each case.
With `COc1cc(OC)cc(Oc2nc3c(N)cc(C(F)(F)F)cc3nc2-c2ccccc2)c1`, the TGI with 786-0 renal was over 100 µM; in the test on ACHN renal, over 100 µM; with CAKI-1 renal, over 100 µM; in the test with COLO 205 colon, 64.3 µM; in the test on HCT-116 colon, over 100 µM; with HCT-15 colon it was 55.9 µM. The TGI with HOP-62 NSCLC was over 100 µM; in the test with KM12 colon, 50.3 µM; with MOLT-4 leukemia, 81.1 µM; with SF-268 CNS, over 100 µM; with SF-539 CNS it was over 100 µM; in the test with SK-MEL-2 melanoma, 55.5 µM. The TGI with SK-OV-3 ovarian was over 100 µM; in the test with SR leukemia, 75.7 µM; with SW-620 colon, over 100 µM; in the test with UACC-257 melanoma, over 100 µM; in the test on UO-31 renal, over 100 µM.
Consider `C#CC1(O)CC(c2ccccc2)N(C)C(c2ccccc2)C1` (stereo not drawn), for which the TGI in the test with 786-0 renal is over 100 µM; with A549 NSCLC, over 100 µM; in the test on ACHN renal, over 100 µM; in the test on CAKI-1 renal, over 100 µM; in the test with COLO 205 colon, over 100 µM; in the test with HCT-116 colon, 32.4 µM. In addition, the TGI with HCT-15 colon, in the test on HOP-62 NSCLC, in the test on KM12 colon, with MOLT-4 leukemia, in the test with SF-268 CNS and in the test on SF-539 CNS was over 100 µM throughout. The TGI with SK-MEL-2 melanoma, in the test with SK-OV-3 ovarian, with SW-620 colon, in the test with UACC-257 melanoma and in the test on UO-31 renal was over 100 µM each time.
For the compound `Nc1nc2c(ncn2CC(CO)CC(c2ccccc2)P(=O)(O)O)c(=O)[nH]1` (stereo not drawn), the TGI with 786-0 renal, in the test with A549 NSCLC, in the test with ACHN renal, with CAKI-1 renal, in the test on COLO 205 colon and with HCT-116 colon was over 100 µM throughout. The TGI with HCT-15 colon, in the test on HOP-62 NSCLC, in the test on KM12 colon, in the test with MOLT-4 leukemia, in the test on SF-268 CNS and in the test on SF-539 CNS was over 100 µM each time. Further, the TGI in the test on SK-MEL-2 melanoma, in the test with SK-OV-3 ovarian, in the test on SR leukemia, in the test with SW-620 colon, with UACC-257 melanoma and with UO-31 renal was over 100 µM in each case.
In the case of `NC(=O)N/N=C/c1ccccc1O`, the TGI with 786-0 renal, in the test on ACHN renal, in the test on CAKI-1 renal, with COLO 205 colon, with DU-145 prostate and in the test with HCT-116 colon was over 100 µM each time. For the same compound, the TGI in the test with HCT-15 colon, in the test on HOP-62 NSCLC, with KM12 colon, in the test on MOLT-4 leukemia, in the test with SF-268 CNS and in the test with SF-539 CNS was over 100 µM in each case. The TGI in the test on SK-MEL-2 melanoma, in the test with SK-OV-3 ovarian, with SR leukemia, in the test on SW-620 colon, in the test on UACC-257 melanoma and in the test with UO-31 renal was over 100 µM each time.
With `C[C@]12CC[C@H]3[C@@H](CCC4=CC(=O)CC[C@@]43C)[C@@H]1CC[C@@H]2OC(=O)c1cccc2c(=O)c3ccccc3[nH]c12`, the TGI is 38.6 µM in the test on 786-0 renal; over 100 µM in the test on A549 NSCLC; over 100 µM with ACHN renal; over 100 µM with COLO 205 colon; over 100 µM in the test with HCT-15 colon; over 100 µM with HOP-62 NSCLC. Moreover, the TGI was over 100 µM in the test with KM12 colon; over 100 µM with MDA-N; 89.2 µM in the test with MOLT-4 leukemia; over 100 µM in the test on SF-268 CNS; over 100 µM with SF-539 CNS; over 100 µM in the test with SK-MEL-2 melanoma. Moreover, the TGI in the test on SK-OV-3 ovarian, in the test on SW-620 colon, in the test with UACC-257 melanoma and in the test with UO-31 renal was over 100 µM in each case.
Turning to `COC1=CC(=O)C2C(C1=O)[C@@H]1c3ccccc3OC[C@H]21` (stereo partly drawn), the TGI in the test on 786-0 renal, in the test with A549 NSCLC, in the test on ACHN renal, in the test on CAKI-1 renal, with COLO 205 colon and in the test with HCT-116 colon was over 100 µM in each case. The TGI in the test with HOP-62 NSCLC, in the test with KM12 colon, with MOLT-4 leukemia, in the test on SF-268 CNS, with SF-539 CNS and in the test on SK-MEL-2 melanoma was over 100 µM each time. Also, the TGI in the test on SK-OV-3 ovarian, with SW-620 colon and in the test on UO-31 renal was over 100 µM each time.

Values taken from PubChem BioAssay (NCI).
